Like-named read-outs stand apart in the source and are kept apart here.
Columns and labels:
[1] = system: 3D7-strain P. falciparum asexual parasites; experiment: P. falciparum asexual growth inhibition assay (Pf GIA); assay type: cell-based, Plasmodium falciparum; details: dose response confirmation; read-out: Pf asexual growth inhibition assays IC50
Summary of the method: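 Steps: seed parasites (0.25% parasitemia, 2% hematocrit) onto compound dilutions; incubate 72 h at 37°C, 5% O2/5% CO2; freeze at −70°C and thaw; add LDH reaction mix, read A650 after 10 min. Percent growth inhibition derived from chloroquine and DMSO controls, averaged over three biological replicates.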

HepG2 cells = experiment: HepG2 cytotoxicity assay; details: for Pb ODA (this manuscript) HepG2 cytoxicity: HepG2 cytotoxicity listed with the Pb ODA data set (this manuscript); for IC50: read-out: HepG2 cytotoxicity assay IC50, dose response confirmation
Summary of the method: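 Here viability after a 48 h compound incubation (37°C, humidified 5% CO2) is measured by fluorescence and expressed as percent inhibition, with doxorubicin at 50 μM and DMSO as the bounding controls.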

[2] = system: P. berghei ookinete development; details: for % inhibition, Replicate A / % inhibition, Replicate B: primary screen at 1 μM
[3] = read-out: Pb ODA (this manuscript) IC50, P. berghei ookinete development assay, this manuscript
[4] = read-out: Pb Ookinete development assay IC50, dose response confirmation
[5] = unified HepG2 value across the three screens
[6] = read-out: Pb ODA IC50, this manuscript
[7] = HepG2 values of the three screens unified

| SMILES | IC50 [1] [nM] | Pb ODA (this manuscript) HepG2 cytoxicity (HepG2 cells) [µM] | IC50 (HepG2 cells) [nM] | Is compound selective in assay? Pb ODA active? [2] | % inhibition, Replicate A [2] [%] | % inhibition, Replicate B [2] [%] | IC50 [2, 3] [nM] | IC50 [2, 4] [nM] | Unified cytotox (HepG2 cells; [5]) [µM] | Is compound selective in assay? Pb ODA active? ([2]; 1: YES, 0: NO) | IC50 [2, 6] [nM] | Unified cytotox (HepG2 cells; [7]) [µM] |
| --- | --- | --- | --- | --- | --- | --- | --- | --- | --- | --- | --- | --- |
| COc1cc(NC2=C(c3ccccc3)C(=O)c3ccccc32)ccn1 [TCMDC-135283] | 286 | 100.00 | 100000 | 1 (key: 1: YES; 0: NO) | 80.47 | 74.75 | 740 | 743 |  |  |  |  |
| CCNC(=O)Nc1ccc(-c2cnc(N)c(-c3nc4ccc(OC)cc4[nH]3)c2)cc1 [TCMDC-135321] | 364 |  | 6680 |  | 44.00 | 70.87 |  | 2330 | 6.68 | 0 (0: NO) | 2330 |  |
| COc1ccc2nc(-c3cc(-c4ccc(NC(=O)C(C)C)cc4)cnc3N)[nH]c2c1 [TCMDC-135322] | 277 |  | 8610 |  | 29.63 | 78.93 |  | 423 | 8.61 | 1 (1: YES) | 420 |  |
| COc1ccc2nc(-c3cc(-c4ccc(NC(C)=O)cc4)cnc3N)[nH]c2c1 [TCMDC-135365] | 1280 |  | 12000 |  | 88.78 | 104.70 |  | 442 | 12.02 | 1 (1: YES) | 440 |  |
| COc1cc(F)c2ncc(C#N)c(CCN3CCC(NCc4ccc5c(c4)OCCO5)CC3)c2c1.Cl [TCMDC-135367] | 640 |  | 38900 |  | 88.34 | 59.17 |  | 2170 | 38.90 | 1 (1: YES) | 2170 |  |
| Cc1cc(SC(C)(C)C)cc2c(Cl)c(C(N)=O)cnc12 [TCMDC-135415] | 69 |  | 1360 |  | 28.78 | 60.54 |  | 2710 | 1.36 | 0 (0: NO) | 2710 |  |
| Cc1[nH]c2ccc(-c3ccccc3)cc2c(=O)c1Br [TCMDC-135426] | 136 |  | 100000 |  | 84.59 | 99.51 |  | 1250 | 100.00 | 1 (1: YES) | 1250 |  |
| C=Cc1ccc(-c2c(C)[nH]c(C)c(Br)c2=O)cc1 [TCMDC-135433] | 433 | 57.54 | 57500 | 1 (key: 1: YES; 0: NO) | 31.67 | 64.44 | 1240 | 1240 |  |  |  |  |
| CCCCc1ccc(-c2ccc3[nH]c(C)c(Br)c(=O)c3c2)cc1 [TCMDC-135463] | 77 |  | 10000 |  | 56.53 | 70.28 |  | 3000 | 10.00 | 0 (0: NO) | 2990 |  |
| COc1ccc2ncc(F)c(CCN3CCC(NCc4ccc5c(c4)CCO5)CC3)c2n1.Cl [TCMDC-135491] | 879 | 31.62 | 31600 | 0 (key: 1: YES; 0: NO) | 14.40 | 53.74 | 3390 | 3390 |  |  |  |  |
| O=C(NCC1CC1)C1CCN(C(c2ccc(Cl)cc2)c2ccc(Cl)cc2)CC1 [TCMDC-135522] | 305 |  | 100000 |  | 38.16 | 71.31 |  | 1590 | 100.00 | 1 (1: YES) |  |  |
| Cc1[nH]c(C)c(-c2ccc(Nc3ccc(C(F)(F)F)cn3)cc2)c(=O)c1Br [TCMDC-135546] | 14 | 0.98 | 980 | 1 (key: 1: YES; 0: NO) | 85.12 | 90.38 |  | 5.45 |  |  |  |  |
| Cc1[nH]c(C)c([N+](=O)[O-])c(=O)c1-c1ccc(Oc2ccc(OC(F)(F)F)cc2)cc1 [TCMDC-135555] | 177 | 100.00 | 100000 | 1 (key: 1: YES; 0: NO) | 67.14 | 51.32 | 2810 | 2810 |  |  |  |  |
| COc1cc(F)c2ncc(Cl)c(CCN3CCC(NCc4ccc5c(c4)NC(=O)CS5)CC3)c2c1.Cl [TCMDC-135620] | 15 |  | 10600 |  | 131.37 | 63.52 |  | 467 | 10.59 | 1 (1: YES) | 470 |  |
| COc1cc(F)c2ncc(Cl)c(CCN3CCC(NCc4ccc5c(n4)NC(=O)CO5)CC3)c2c1.Cl [TCMDC-135621] | 2590 | 27.23 | 27200 | 1 (key: 1: YES; 0: NO) | 69.33 | 64.08 |  | 1270 |  |  |  |  |
| COc1cc(F)c2ncc(Cl)c(CCN3CCC(NCc4ccc5c(c4)NC(=O)CO5)CC3)c2c1.Cl [TCMDC-135623] | 339 | 12.30 | 12300 | 1 (key: 1: YES; 0: NO) | 70.96 | 86.73 | 540 | 541 |  |  |  |  |
| COc1ccc2ncc(F)c(CCN3C4CCC3CC(NCc3ccc5c(c3)OCCO5)C4)c2n1.Cl (stereo not shown) [TCMDC-135638] | 995 | 39.81 | 39800 | 0 (key: 1: YES; 0: NO) | 30.43 | 54.56 | 4240 | 4240 |  |  |  |  |
| COc1ccc2ncc(C#N)c(CCN3CCC(NCc4ccc5c(c4)NC(=O)CO5)CC3)c2c1.Cl [TCMDC-135645] | 553 | 38.90 | 38900 | 1 (key: 1: YES; 0: NO) | 122.09 | 92.16 | 460 | 457 |  |  |  |  |
| COc1ccc(CCc2ccc(-c3c(C)[nH]c(C)c(Cl)c3=O)cc2)cc1 [TCMDC-135654] | 20 |  | 100000 |  | 86.19 | 104.99 |  | 143 |  | 1 (1: YES) | 140 | 100.00 |
| COc1ccc(C#Cc2ccc(-c3c(C)[nH]c(C)c(Cl)c3=O)cc2)cc1 [TCMDC-135655] | 73 |  | 100000 |  | 78.44 | 70.65 |  | 1160 |  | 1 (1: YES) | 1160 | 100.00 |
